What was measured:
[1] = target: T1, Recombinant human CASP1 (Homo sapiens, UniProt P29466); assay: CASP1 enzymatic assay: cleavage of glucocorticoid receptor (NR3C1) by recombinant CASP1; format: biochemical; settings: for CASP1-induced cleavage of the glucocorticoid receptor (NR3C1): recombinant human CASP1, 30° C., inhibitor 10 μM unless otherwise indicated, FIG. 3A, 3C
T1 construct: purchased Enzo Life Sciences BML-AK701-0001
T1 sequence (P29466 120-297): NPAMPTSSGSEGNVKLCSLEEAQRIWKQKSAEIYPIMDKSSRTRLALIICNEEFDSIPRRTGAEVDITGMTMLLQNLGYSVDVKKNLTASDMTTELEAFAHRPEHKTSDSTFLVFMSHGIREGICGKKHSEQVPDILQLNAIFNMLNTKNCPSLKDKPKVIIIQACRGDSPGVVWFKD
T1 sequence (P29466 317-404): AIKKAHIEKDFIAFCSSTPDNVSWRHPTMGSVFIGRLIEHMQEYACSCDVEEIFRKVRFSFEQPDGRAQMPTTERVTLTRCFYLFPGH
Method: Recombinant human CASP1 (100-200 U, where U=1 pmol/min at 30° C., 200 μM YVAD-pNA (SEQ ID NO: 21)) from a CASP1 assay kit for drug discovery (Enzo Life Sciences, Farmingdale, N.Y., catalog number BML-AK701-0001) was incubated at 30° C. with wild-type or mutated GR in the presence (10 μM unless otherwise indicated) or absence of inhibitors, (Ac-YVAD-CHO (SEQ ID NO: 18), Enzo Life Sciences, Farmingdale, N.Y., catalog number BML-P403-9090), VX765, VRT-043198).
Cells were pelleted by centrifugation, washed once with PBS and lysed with RIPA buffer or caspase-1 assay buffer (Enzo Life Sciences, Farmingdale, N.Y. catalog number KI-111), equal amounts of proteins (1-20 μg) separated by 4-12% Novex Bis-Tris gels (Life Technologies, Grand Island, N.Y.), and then transblotted to PVDF membranes (Life Technologies, Grand Island, N.Y.). Anti-GR (1:1000-1:10,000, BD catalog number 611227), anti-DDK […] (1:1000, Origene catalog number TA50011), anti-Bim (1:1000, Cell Signalling catalog number 2819) or anti-Tubulin (1:1000, Santa Cruz, sc-8035) were used as primary antibodies followed by appropriate secondary HRP-conjugated IgG (1:1000, Dako) and immunocomplexes were visualized by chemiluminescence.

[2] = system: Nalm6 leukemia cell line; assay: MTT drug sensitivity assay in Nalm6 cells with enforced CASP1 expression or empty vector; format: cell-based, human; settings: for increase in resistance (LC50) by CASP1 over-expression: Nalm6 cells transduced with CASP1, after activation of NLRP3 inflammasome (LPS/ATP), average
Method: Leukemia cells were isolated at diagnosis from patient bone marrow aspirates. If the leukemia cell percentage from diagnostic bone marrow samples was less than ninety percent, magnetic activated cell sorting (Miltenyl Biotec, Auburn, Calif.) was performed to further enrich for leukemia cells. If red cell contamination was greater than thirty percent, red blood cell lysis was performed. Cells were centrifuged at 300 g for five minutes and resuspended at a concentration of two million cells per milliliter. Eighty microliters of this leukemia cell suspension was then plated into each experimental well of round-bottom 96-well plates. Twenty microliters of decreasing concentrations of prednisolone were added and the plates were incubated for ninety-six hours in a humidified incubator containing 5% CO2 at 37° C. For the final six hours, ten microliters of 5 milligram per milliliter MTT (3-4,5-dimethylthiazol-2,5-diphenyl tetrazolium bromide) was added to each experimental well. Drug resistance assays in cell lines were performed using between 0.25 and 2.5 million cells per milliliter. Assays were developed and performed as for patient sample assays. LC50 values were determined as previously described (Holleman et al., 2004).
Full-length CASP1 (Origene, Rockville, Md., catalog # RC218364; GenBank Accession No. NM_033292) was subcloned into a lentiviral backbone (System Biosciences, Mountain View, Calif., catalog number CD527A-1), in frame with a T2A linked puromycin resistance gene. Lentivirus was produced in 293T cells and the Nalm6 leukemia cell line was transduced. 72 hours post transduction, cells were selected with 2.5 micrograms per milliliter puromycin. Where indicated cells were treated with 10 μg/mL LPS (InvivoGen, San Diego, Calif.) followed 2 hours later by 5 mM ATP (Roche, Pleasanton, Calif.).

[3] = system: NALM-6 cells overexpressing CASP1; format: cell-based, human; settings: CASP1 overexpressing ALL (NALM-6) cells transduced with the named shRNA, +LPS/ATP, MTT, mean±S.E.M., n=4; read-out: LC50 (glucocorticoid sensitivity, prednisolone)
Method: The sensitivity (LC50) of shCASP1 and shNT cells to prednisolone was determined by MTT assays (Panel B). […] Error bars represent S.E.M; n=4 replicate experiments.
NALM-6 cells overexpressing CASP1 co-transfected with either non-targeting scrambled hairpin (shNT; SEQ ID NO: 13) or shRNA hairpins targeting CASP1 (shCASP1; SEQ ID NO: 14) were stably transduced with lentiviral vectors (Addgene plasmid 25890; Sigma-Aldrich, St. Louis, Mo.) containing a wild-type glucocorticoid receptor (SEQ ID NO: 16) or a glucocorticoid receptor in which both CASP1 cleavage sites had been eliminated (double mutagenized GR, DM-GR (SEQ ID NO: 17)).
Cells were centrifuged at 300 g for five minutes and resuspended at a concentration of two million cells per milliliter. Eighty microliters of this leukemia cell suspension was then plated into each experimental well of round-bottom 96-well plates. Twenty microliters of decreasing concentrations of prednisolone were added and the plates were incubated for ninety-six hours in a humidified incubator containing 5% CO2 at 37° C. For the final six hours, ten microliters of 5 milligram per milliliter MTT (3-4,5-dimethylthiazol-2,5-diphenyl tetrazolium bromide) was added to each experimental well. […] LC50 values were determined as previously described (Holleman et al., 2004). […]

Compound | CASP1-induced cleavage of the glucocorticoid receptor (NR3C1) [1] | increase in resistance (LC50) by CASP1 over-expression [2] [fold] | other results
CC(C)(C)[C@@H](NC(=O)c1ccc(N)c(Cl)c1)C(=O)N1CCC[C@H]1C(=O)N[C@H](C=O)CC(=O)O [VRT043198, (S)-3-((S)-1-((R)-2-(4-amino-3-chlorobenzamido)-3,3-dimethylbutanoyl)pyrrolidine-2-carboxamido)-4-oxobutanoic acid] | inhibited |  | inhibitory activity on CASP1 cleavage of NR3C1 compared with VX-765 ([1]; FIG. 3C): higher inhibitory activity
CCO[C@H]1OC(=O)C[C@@H]1NC(=O)[C@@H]1CCCN1C(=O)[C@H](NC(=O)c1ccc(N)c(Cl)c1)C(C)(C)C [VX765, (S)-1-((R)-2-(4-amino-3-chlorobenzamido)-3,3-dimethylbutanoyl)-N-((2S,3S)-2-ethoxy-5-oxotetrahydro-furan-3-yl)pyrrolidine-2-carboxamide] | inhibited |  | 
C[C@@H]1C[C@H]2[C@@H]3CCC4=CC(=O)C=C[C@]4(C)[C@@]3(F)[C@@H](O)C[C@]2(C)[C@@]1(O)C(=O)CO [dexamethasone] |  | 5.3 | 
C[C@]12C=CC(=O)C=C1CC[C@@H]1[C@@H]2[C@@H](O)C[C@@]2(C)[C@H]1CC[C@]2(O)C(=O)CO [prednisolone] |  | 16.9 | difference in sensitivity on activation of the NLRP3 inflammasome and CASP1 ([2]; Nalm6 cells transduced with empty vector control virus): no difference
shNT: non-targeting scrambled shRNA hairpin, control (CCGGCAACAAGATGAAGAGCACCAACTCGAGTTGGTGCTCTTCATCTTGTTGTTTTT) |  |  | CC50 [3]: 570 ± 423 µM
